Source: the supplement of paper PMC13207355

Assays:
Conditions in all cases: exposure time: 72 h
[1] = test system: E13 (patient-derived glioblastoma stem cells of classical subtype); assay: surviving fraction (nuclei count normalised to DMSO); higher = more cells surviving (less toxic)
[2] = test system: E21 (patient-derived glioblastoma stem cells of mesenchymal subtype); assay: as above
[3] = test system: E28 (patient-derived glioblastoma stem cells of classical subtype); assay: as above
[4] = test system: E31 (patient-derived glioblastoma stem cells of proneural subtype); assay: as above
[5] = test system: E34 (patient-derived glioblastoma stem cells of proneural subtype); assay: as above
[6] = test system: E57 (patient-derived glioblastoma stem cells of mesenchymal subtype); assay: as above
[7] = test system: FT3469 (normal neural stem cell line); assay: as above
[8] = test system: E13; assay: phenotypic distance (Euclidean, principal components) from DMSO controls (arbitrary units); higher = stronger morphological change
[9] = test system: E21; assay: as above
[10] = test system: E28; assay: as above
[11] = test system: E31; assay: as above
[12] = test system: E34; assay: as above
[13] = test system: E57; assay: as above
[14] = test system: FT3469; assay: as above
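For phenotypic distance (Euclidean, principal components) from DMSO controls in this document: cell Painting imaging in 384-well plates, CellProfiler features reduced to at least 20 principal components, Euclidean distance versus same-plate DMSO vehicle wells (0.1% v/v), median over six images per well.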
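For surviving fraction (nuclei count normalised to DMSO) in this document: nuclei counted by high-content imaging of Hoechst-stained cells in laminin-coated 384-well plates, relative to 0.1% DMSO vehicle wells, with staurosporine as cell-death control.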

C[C@@H](O)[C@H]1C(=O)N2C(C(=O)O)=C(S[C@@H]3CN[C@H](C(=O)N(C)C)C3)[C@H](C)[C@H]12 [Meropenem]
Conditions | phenotypic distance | surviving fraction
[1], 4.11523 nM | – | 0.996
[1], 12.34567901 nM | – | 1.11
[1], 37.037 nM | – | 0.951
[1], 111.1111111 nM | – | 1.09
[1], 333.333 nM | – | 1.05
[1], 1000 nM | – | 1.31
[1], 3000 nM | – | 1.17
[2], 4.11523 nM | – | 1.15
[2], 12.34567901 nM | – | 1.14
[2], 37.037 nM | – | 1.07
[2], 111.1111111 nM | – | 1.11
[2], 333.333 nM | – | 1.02
[2], 1000 nM | – | 1.16
[2], 3000 nM | – | 1.06
[3], 4.11523 nM | – | 1.11
[3], 12.34567901 nM | – | 1.17
[3], 37.037 nM | – | 1.12
[3], 111.1111111 nM | – | 1.08
[3], 333.333 nM | – | 1.29
[3], 1000 nM | – | 1.23
[3], 3000 nM | – | 1.03
[4], 4.11523 nM | – | 1.13
[4], 12.34567901 nM | – | 1.1
[4], 37.037 nM | – | 1.15
[4], 111.1111111 nM | – | 0.926
[4], 333.333 nM | – | 1.17
[4], 1000 nM | – | 1.01
[4], 3000 nM | – | 1.16
[5], 4.11523 nM | – | 1.07
[5], 12.34567901 nM | – | 1.03
[5], 37.037 nM | – | 1.11
[5], 111.1111111 nM | – | 1.17
[5], 333.333 nM | – | 1.07
[5], 1000 nM | – | 0.937
[5], 3000 nM | – | 1.02
[6], 4.11523 nM | – | 1
[6], 12.34567901 nM | – | 1.01
[6], 37.037 nM | – | 1.01
[6], 111.1111111 nM | – | 1.03
[6], 333.333 nM | – | 1.01
[6], 1000 nM | – | 1.06
[6], 3000 nM | – | 0.989
[7], 4.11523 nM | – | 1.24
[7], 12.34567901 nM | – | 1.17
[7], 37.037 nM | – | 1.17
[7], 111.1111111 nM | – | 1.1
[7], 333.333 nM | – | 1.28
[7], 1000 nM | – | 0.993
[7], 3000 nM | – | 0.866
[8], 4.11523 nM | 0.447 | –
[8], 12.34567901 nM | 0.391 | –
[8], 37.037 nM | 0.465 | –
[8], 111.1111111 nM | 0.343 | –
[8], 333.333 nM | 0.428 | –
[8], 1000 nM | 1.47 | –
[8], 3000 nM | 0.693 | –
[9], 4.11523 nM | 1.01 | –
[9], 12.34567901 nM | 1 | –
[9], 37.037 nM | 0.846 | –
[9], 111.1111111 nM | 3.57 | –
[9], 333.333 nM | 0.377 | –
[9], 1000 nM | 0.695 | –
[9], 3000 nM | 0.387 | –
[10], 4.11523 nM | 0.51 | –
[10], 12.34567901 nM | 0.969 | –
[10], 37.037 nM | 0.452 | –
[10], 111.1111111 nM | 0.706 | –
[10], 333.333 nM | 0.645 | –
[10], 1000 nM | 0.83 | –
[10], 3000 nM | 0.601 | –
[11], 4.11523 nM | 0.705 | –
[11], 12.34567901 nM | 0.703 | –
[11], 37.037 nM | 0.741 | –
[11], 111.1111111 nM | 0.746 | –
[11], 333.333 nM | 0.485 | –
[11], 1000 nM | 0.528 | –
[11], 3000 nM | 0.487 | –
[12], 4.11523 nM | 0.76 | –
[12], 12.34567901 nM | 0.538 | –
[12], 37.037 nM | 0.692 | –
[12], 111.1111111 nM | 0.922 | –
[12], 333.333 nM | 0.78 | –
[12], 1000 nM | 0.612 | –
[12], 3000 nM | 0.538 | –
[13], 4.11523 nM | 0.603 | –
[13], 12.34567901 nM | 0.59 | –
[13], 37.037 nM | 0.529 | –
[13], 111.1111111 nM | 0.751 | –
[13], 333.333 nM | 0.536 | –
[13], 1000 nM | 0.871 | –
[13], 3000 nM | 0.419 | –
[14], 4.11523 nM | 0.799 | –
[14], 12.34567901 nM | 1.17 | –
[14], 37.037 nM | 0.764 | –
[14], 111.1111111 nM | 1.09 | –
[14], 333.333 nM | 0.633 | –
[14], 1000 nM | 0.854 | –
[14], 3000 nM | 0.676 | –
